Tests used:
[1] = system: ABUTH (Abutilon theophrasti); assay: Postemergence herbicidal evaluation; type: in vivo, Medic.; conditions: postemergence
Method: (§1) In the tests, seedling plants are grown in jiffy flats for about two weeks. […] After spraying, the plants are placed on greenhouse benches and are cared for in accordance with conventional greenhouse procedures. From four to five weeks after treatment, the seedling plants are examined and rated according to the rating system set forth below. Where more than one test is involved for a given compound, the data are averaged.
(§2) Results of herbicide evaluation are expressed on a rating scale (0-9). The scale is based upon a visual observation of plant stand, vigor, malformation, size, chlorosis and overall plant appearance as compared with a control.

[2] = system: AMBEL (Ambrosia artemisifolia); assay: Postemergence herbicidal evaluation; type: in vivo, L.; conditions: postemergence
Method: as §1, §2

[3] = system: CASOB (Cassia obtusifolia); assay: Postemergence herbicidal evaluation; type: in vivo, L.; conditions: postemergence
Method: as §1, §2

[4] = system: CHEAL (Chenopodium album); assay: Postemergence herbicidal evaluation; type: in vivo, L.; conditions: postemergence
Method: as §1, §2

GALAP (Galium aparine) [5] = assay: Postemergence herbicidal evaluation; type: in vivo; conditions: postemergence
Method: as §1, §2

[6] = system: IPOHE (Ipomoea hederacea); assay: Postemergence herbicidal evaluation; type: in vivo, (L.) Jacq.; conditions: postemergence
Method: as §1, §2

[7] = system: ECHCG (Echinochloa crus-galli); assay: Postemergence herbicidal evaluation; type: in vivo, (L.) Beau; conditions: postemergence
Method: as §1, §2

SETVI (Setaria viridis) [8] = assay: Postemergence herbicidal evaluation; type: in vivo, (L.) Beau; conditions: postemergence
Method: In the tests, seedling plants are grown in jiffy flats for about two weeks. The test compounds are dispersed in 50/50 acetone/water mixtures containing 0.5% TWEEN® 20, a polyoxyethylene sorbitan monolaurate surfactant of Atlas Chemical Industries, in sufficient quantities to provide the equivalent of about 0.0040 kg to 1.000 kg per hectare of active compound when applied to the plants through a spray nozzle operating at 40 psi for a predetermined time. After spraying, the plants are placed on greenhouse benches and are cared for in accordance with conventional greenhouse procedures. From four to five weeks after treatment, the seedling plants are examined and rated according to the rating system set forth below. Where more than one test is involved for a given compound, the data are averaged.
as §2

[9] = system: GLXMAW (Soybean, Williams); assay: Postemergence herbicidal evaluation; type: in vivo, Glycine max, (L.) Merr. cv Williams; conditions: postemergence
Method: as §1, §2

ORYSAT (Rice, Tebonnet) [10] = assay: Postemergence herbicidal evaluation; type: in vivo, Oryza sativa, (L.) Tebonnet; conditions: postemergence
Method: as §1, §2

[11] = system: TRZAWR (Wheat, Winter, cv Riband); assay: Postemergence herbicidal evaluation; type: in vivo, Triticum aestivum; conditions: postemergence
Method: as §1, §2

ZEAMX (Corn, Field) [12] = assay: Postemergence herbicidal evaluation; type: in vivo, Zea mays, L.; conditions: postemergence
Method: as §1, §2

[13] = system: ABUTH (Abutilon theophrasti); assay: Preemergence herbicidal evaluation; type: in vivo, Medic.; conditions: rated 4-5 weeks after treatment
Source text: as §2
(§3) The preemergence herbicidal activity of the test compounds of the present invention is exemplified by the following tests in which the seeds of a variety of monocotyledonous and dicotyledonous plants are separately mixed with potting soil and planted on top of approximately one inch of soil in separate pint cups. […] The treated cups are then placed on greenhouse benches, watered and cared for in accordance with conventional greenhouse procedures. From four to five weeks after treatment, the tests are terminated and each cup is examined and rated according to the rating system provided in Example 87. The plant species used and the compounds evaluated are the same as those shown in Example 87.

[14] = system: AMBEL (Ambrosia artemisifolia); assay: Preemergence herbicidal evaluation; type: in vivo, L.; conditions: rated 4-5 weeks after treatment
Source text: as §2, §3

[15] = system: CASOB (Cassia obtusifolia); assay: Preemergence herbicidal evaluation; type: in vivo, L.; conditions: rated 4-5 weeks after treatment
Source text: as §2, §3

[16] = system: CHEAL (Chenopodium album); assay: Preemergence herbicidal evaluation; type: in vivo, L.; conditions: rated 4-5 weeks after treatment
Source text: as §2, §3

GALAP (Galium aparine) [17] = assay: Preemergence herbicidal evaluation; type: in vivo; conditions: rated 4-5 weeks after treatment
Source text: as §2, §3

[18] = system: IPOHE (Ipomoea hederacea); assay: Preemergence herbicidal evaluation; type: in vivo, (L.) Jacq.; conditions: rated 4-5 weeks after treatment
Source text: as §2, §3

[19] = system: ECHCG (Echinochloa crus-galli); assay: Preemergence herbicidal evaluation; type: in vivo, (L.) Beau; conditions: rated 4-5 weeks after treatment
Source text: as §2, §3

SETVI (Setaria viridis) [20] = assay: Preemergence herbicidal evaluation; type: in vivo, (L.) Beau; conditions: rated 4-5 weeks after treatment
Source text: as §2, §3

[21] = system: GLXMAW (Soybean, Williams); assay: Preemergence herbicidal evaluation; type: in vivo, Glycine max, (L.) Merr. cv Williams; conditions: rated 4-5 weeks after treatment
Source text: as §2, §3

ORYSAT (Rice, Tebonnet) [22] = assay: Preemergence herbicidal evaluation; type: in vivo, Oryza sativa, (L.) Tebonnet; conditions: rated 4-5 weeks after treatment
Source text: as §2, §3

[23] = system: TRZAWR (Wheat, Winter, cv Riband); assay: Preemergence herbicidal evaluation; type: in vivo, Triticum aestivum; conditions: rated 4-5 weeks after treatment
Source text: as §2, §3

ZEAMX (Corn, Field) [24] = assay: Preemergence herbicidal evaluation; type: in vivo, Zea mays, L.; conditions: rated 4-5 weeks after treatment
Source text: as §2, §3

[25] = system: ECHORC (Echinochloa oryzoides); assay: Flooded paddy, preemergence weed control; type: in vivo, Echinochloa oryzoides (Ard.) Fritsch.; conditions: rated 3-4 weeks after treatment, 0-9 rating scale
Method: as §2
(§4) Preemergence herbicidal activity under flooded paddy conditions is determined as follows: plant seeds or propagating organs are planted in the top 0.5 cm of silt loam soil in 32 oz. plastic containers with a diameter of 10.5 cm and no drainage holes. Water is added to these containers and maintained at 1.5 to 3 cm above the soil surface for the duration of the experiment. […] The treated containers are placed on greenhouse benches and cared for in accordance with conventional greenhouse procedures.

CYPIR (Cyperus iria) = assay: Flooded paddy, preemergence weed control; type: in vivo; conditions: rated 3-4 weeks after treatment, 0-9 rating scale
Method: as §2, §4

[26] = system: MOOVA (Monochoria vaginalis); assay: Flooded paddy, preemergence weed control; type: in vivo, Presl.; conditions: rated 3-4 weeks after treatment, 0-9 rating scale
Method: as §2, §4

[27] = system: SAGPY (Sagittaria pygmaea); assay: Flooded paddy, preemergence weed control; type: in vivo, L.; conditions: rated 3-4 weeks after treatment, 0-9 rating scale
Method: as §2, §4

ORYSAT (Rice, Tebonnet) [28] = assay: Flooded paddy, post-transplant rice tolerance; type: in vivo, Oryza sativa, (L.) Tebonnet; conditions: in vivo
Method: as §2
The tolerance of transplanted rice to post-transplanted herbicide application is determined as follows: two ten-day-old rice seedlings (cv. Tebonnet) are transplanted into silt loam soil in 32 oz. plastic containers with a diameter of 10.5 cm and no drainage holes. After transplanting, the containers are flooded and the water level is maintained at 1.5 to 3 cm above the soil surface. […] The treated containers are placed on greenhouse benches, watered such that the water level is maintained as stated above, and cared for in accordance with conventional greenhouse procedures.

Molecule: 3-[3-[5-(bromomethyl)-5-hydroxy-m-diaxan-2-yl]-1,2-benzisothiazol-5-yl]-1-methyl-6-(trifluoromethyl)uracil [Compound 69]
- ABUTH herbicidal rating ([1]; rate 0.0320 kg/ha): 9.0
- ABUTH herbicidal rating ([1]; rate 0.0620 kg/ha): 9.0
- AMBEL herbicidal rating ([2]; rate 0.0320 kg/ha): 9.0
- AMBEL herbicidal rating ([2]; rate 0.0620 kg/ha): 9.0
- CASOB herbicidal rating ([3]; rate 0.0320 kg/ha): 0.0
- CASOB herbicidal rating ([3]; rate 0.0620 kg/ha): 2.0
- CHEAL herbicidal rating ([4]; rate 0.0320 kg/ha): 9.0
- CHEAL herbicidal rating ([4]; rate 0.0620 kg/ha): 7.0
- GALAP herbicidal rating (GALAP (Galium aparine) [5]; rate 0.0320 kg/ha): 4.0
- GALAP herbicidal rating (GALAP (Galium aparine) [5]; rate 0.0620 kg/ha): 6.0
- IPOHE herbicidal rating ([6]; rate 0.0320 kg/ha): 9.0
- IPOHE herbicidal rating ([6]; rate 0.0620 kg/ha): 9.0
- ECHCG herbicidal rating ([7]; rate 0.0320 kg/ha): 2.0
- ECHCG herbicidal rating ([7]; rate 0.0620 kg/ha): 3.0
- SETVI herbicidal rating (SETVI (Setaria viridis) [8]; rate 0.0320 kg/ha): 2.0
- SETVI herbicidal rating (SETVI (Setaria viridis) [8]; rate 0.0620 kg/ha): 4.0
- GLXMAW herbicidal rating ([9]; rate 0.0320 kg/ha): 7.5
- GLXMAW herbicidal rating ([9]; rate 0.0620 kg/ha): 7.0
- ORYSAT herbicidal rating (ORYSAT (Rice, Tebonnet) [10]; rate 0.0320 kg/ha): 4.0
- ORYSAT herbicidal rating (ORYSAT (Rice, Tebonnet) [10]; rate 0.0620 kg/ha): 4.0
- TRZAWR herbicidal rating ([11]; rate 0.0320 kg/ha): 4.0
- TRZAWR herbicidal rating ([11]; rate 0.0620 kg/ha): 4.5
- ZEAMX herbicidal rating (ZEAMX (Corn, Field) [12]; rate 0.0320 kg/ha): 5.5
- ZEAMX herbicidal rating (ZEAMX (Corn, Field) [12]; rate 0.0620 kg/ha): 5.5
- Preemergence herbicidal rating ABUTH ([13]; Rate 0.0620 kg/ha): 9.0
- Preemergence herbicidal rating ABUTH ([13]; Rate 0.1250 kg/ha): 9.0
- Preemergence herbicidal rating ABUTH ([13]; Rate 0.2500 kg/ha): 9.0
- Preemergence herbicidal rating AMBEL ([14]; Rate 0.0620 kg/ha): 7.0
- Preemergence herbicidal rating AMBEL ([14]; Rate 0.1250 kg/ha): 9.0
- Preemergence herbicidal rating AMBEL ([14]; Rate 0.2500 kg/ha): 8.0
- Preemergence herbicidal rating CASOB ([15]; Rate 0.0620 kg/ha): 0.0
- Preemergence herbicidal rating CASOB ([15]; Rate 0.1250 kg/ha): 1.0
- Preemergence herbicidal rating CASOB ([15]; Rate 0.2500 kg/ha): 6.0
- Preemergence herbicidal rating CHEAL ([16]; Rate 0.0620 kg/ha): 9.0
- Preemergence herbicidal rating CHEAL ([16]; Rate 0.1250 kg/ha): 9.0
- Preemergence herbicidal rating CHEAL ([16]; Rate 0.2500 kg/ha): 9.0
- Preemergence herbicidal rating GALAP (GALAP (Galium aparine) [17]; Rate 0.0620 kg/ha): 7.0
- Preemergence herbicidal rating GALAP (GALAP (Galium aparine) [17]; Rate 0.1250 kg/ha): 9.0
- Preemergence herbicidal rating GALAP (GALAP (Galium aparine) [17]; Rate 0.2500 kg/ha): 9.0
- Preemergence herbicidal rating IPOHE ([18]; Rate 0.0620 kg/ha): 1.0
- Preemergence herbicidal rating IPOHE ([18]; Rate 0.1250 kg/ha): 9.0
- Preemergence herbicidal rating IPOHE ([18]; Rate 0.2500 kg/ha): 9.0
- Preemergence herbicidal rating ECHCG ([19]; Rate 0.0620 kg/ha): 4.0
- Preemergence herbicidal rating ECHCG ([19]; Rate 0.1250 kg/ha): 8.0
- Preemergence herbicidal rating ECHCG ([19]; Rate 0.2500 kg/ha): 8.0
- Preemergence herbicidal rating SETVI (SETVI (Setaria viridis) [20]; Rate 0.0620 kg/ha): 7.0
- Preemergence herbicidal rating SETVI (SETVI (Setaria viridis) [20]; Rate 0.1250 kg/ha): 9.0
- Preemergence herbicidal rating SETVI (SETVI (Setaria viridis) [20]; Rate 0.2500 kg/ha): 9.0
- Preemergence herbicidal rating GLXMAW ([21]; Rate 0.0620 kg/ha): 2.0
- Preemergence herbicidal rating GLXMAW ([21]; Rate 0.1250 kg/ha): 9.0
- Preemergence herbicidal rating GLXMAW ([21]; Rate 0.2500 kg/ha): 9.0
- Preemergence herbicidal rating ORYSAT (ORYSAT (Rice, Tebonnet) [22]; Rate 0.0620 kg/ha): 1.0
- Preemergence herbicidal rating ORYSAT (ORYSAT (Rice, Tebonnet) [22]; Rate 0.1250 kg/ha): 2.0
- Preemergence herbicidal rating ORYSAT (ORYSAT (Rice, Tebonnet) [22]; Rate 0.2500 kg/ha): 5.0
- Preemergence herbicidal rating TRZAWR ([23]; Rate 0.0620 kg/ha): 1.0
- Preemergence herbicidal rating TRZAWR ([23]; Rate 0.1250 kg/ha): 2.0
- Preemergence herbicidal rating TRZAWR ([23]; Rate 0.2500 kg/ha): 5.0
- Preemergence herbicidal rating ZEAMX (ZEAMX (Corn, Field) [24]; Rate 0.0620 kg/ha): 1.0
- Preemergence herbicidal rating ZEAMX (ZEAMX (Corn, Field) [24]; Rate 0.1250 kg/ha): 3.0
- Preemergence herbicidal rating ZEAMX (ZEAMX (Corn, Field) [24]; Rate 0.2500 kg/ha): 7.0
- herbicidal rating, ECHORC ([25]; rate 0.0080 kg/ha): 0.0
- herbicidal rating, ECHORC ([25]; rate 0.0320 kg/ha): 0.0
- herbicidal rating, ECHORC ([25]; rate 0.1250 kg/ha): 3.0
- herbicidal rating, CYPIR (CYPIR (Cyperus iria); rate 0.0080 kg/ha): 0.0
- herbicidal rating, CYPIR (CYPIR (Cyperus iria); rate 0.0320 kg/ha): 0.0
- herbicidal rating, CYPIR (CYPIR (Cyperus iria); rate 0.1250 kg/ha): 3.0
- herbicidal rating, MOOVA ([26]; rate 0.0080 kg/ha): 0.0
- herbicidal rating, MOOVA ([26]; rate 0.0320 kg/ha): 0.0
- herbicidal rating, MOOVA ([26]; rate 0.1250 kg/ha): 3.0
- herbicidal rating, SAGPY ([27]; rate 0.0080 kg/ha): 0.0
- herbicidal rating, SAGPY ([27]; rate 0.0320 kg/ha): 0.0
- herbicidal rating, SAGPY ([27]; rate 0.1250 kg/ha): 3.0

Molecule: Cn1c(C(F)(F)F)cc(=O)n(-c2ccc3snc(-c4cccnc4)c3c2)c1=O [Example 11]
- herbicidal rating, ORYSAT (rice tolerance) (ORYSAT (Rice, Tebonnet) [28]): 0.0

Molecule: Cn1c(C(F)(F)F)cc(=O)n(-c2ccc3c(c2)C(c2cccc[n+]2[O-])=NS3(=O)=O)c1=O [Example 15]
- herbicidal rating, ORYSAT (rice tolerance) (ORYSAT (Rice, Tebonnet) [28]): 0.0

— US6706663B2, “Herbicidal 3-heterocyclic substituted benzisothiazole and benzisoxazole compounds” (Wyeth, priority 2000, dated 2004)
